Laboratory results: ChEMBL document CHEMBL1201862, “PubChem BioAssay data set” (2004)
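Tested at 5 concentrations; 48 h exposure; 96-well plates; endpoints linearly interpolated, else capped at highest concentration. The concentration for 50% growth inhibition is given as GI50.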 Calls of active or inactive are those of the source. Cut-off read from the data, not from the text of the source: active = GI50 up to about 1.1 µM and inactive = higher.

Legend:
Assay in all cases: NCI tumour cell line growth inhibition, 48 h
CAKI-1 = system: CAKI-1
CCRF-CEM = system: CCRF-CEM
COLO 205 = system: COLO 205
HCC 2998 = system: HCC 2998
Hs-578T = system: Hs-578T
LOX IMVI = system: LOX IMVI
MDA-N = system: MDA-N
MOLT-4 = system: MOLT-4
Malme-3M = system: Malme-3M
NCI/ADR-RES = system: NCI/ADR-RES
OVCAR-3 = system: OVCAR-3
OVCAR-4 = system: OVCAR-4
OVCAR-5 = system: OVCAR-5
SF-268 = system: SF-268
SF-295 = system: SF-295
SN12C = system: SN12C
SW-620 = system: SW-620
UO-31 = system: UO-31
A498 = system: A498
ACHN = system: ACHN

SMILES	GI50 (CAKI-1)	GI50 (CCRF-CEM)	GI50 (COLO 205)	GI50 (HCC 2998)	GI50 (Hs-578T)	GI50 (LOX IMVI)	GI50 (MDA-N)	GI50 (MOLT-4)	GI50 (Malme-3M)	GI50 (NCI/ADR-RES)	GI50 (OVCAR-3)	GI50 (OVCAR-4)	GI50 (OVCAR-5)	GI50 (SF-268)	GI50 (SF-295)	GI50 (SN12C)	GI50 (SW-620)	GI50 (UO-31)	GI50 (A498)	GI50 (ACHN)
COc1ccc(/C=C2\N=C(SC)NC2=O)cc1	56 µM (inactive)	81.8 µM (inactive)	98.6 µM (inactive)	> 100 µM (inactive)	64.6 µM (inactive)	> 100 µM (inactive)	83.6 µM (inactive)	46.5 µM (inactive)	> 100 µM (inactive)	> 100 µM (inactive)	> 100 µM (inactive)	71.1 µM (inactive)	> 100 µM (inactive)	58.6 µM (inactive)	> 100 µM (inactive)	> 100 µM (inactive)	> 100 µM (inactive)	21.2 µM (inactive)		
O=C1c2cc([N+](=O)[O-])ccc2-c2ccc3c4ccc5c6c(ccc(c7ccc1c2c73)c64)C(=O)c1cc([N+](=O)[O-])ccc1-5	> 100 µM (inactive)	> 100 µM (inactive)	> 100 µM (inactive)		> 100 µM (inactive)	> 100 µM (inactive)	> 100 µM (inactive)	> 100 µM (inactive)	> 100 µM (inactive)	> 100 µM (inactive)	> 100 µM (inactive)	> 100 µM (inactive)	> 100 µM (inactive)	> 100 µM (inactive)	> 100 µM (inactive)	> 100 µM (inactive)	> 100 µM (inactive)	> 100 µM (inactive)	4.03 µM (inactive)	> 100 µM (inactive)
Cc1cc([N+](=O)[O-])c(C)c(Br)c1C	> 100 µM (inactive)		> 100 µM (inactive)		42.8 µM (inactive)		> 100 µM (inactive)		> 100 µM (inactive)	> 100 µM (inactive)	> 100 µM (inactive)	> 100 µM (inactive)	> 100 µM (inactive)	> 100 µM (inactive)	> 100 µM (inactive)	> 100 µM (inactive)	> 100 µM (inactive)	> 100 µM (inactive)	> 100 µM (inactive)	> 100 µM (inactive)
C/C(=N\Nc1nc2ccccc2s1)c1ccc2ccccc2n1	55.6 µM (inactive)	25.7 µM (inactive)	75.7 µM (inactive)		84.1 µM (inactive)	> 100 µM (inactive)	> 100 µM (inactive)		58.6 µM (inactive)	> 100 µM (inactive)	34.8 µM (inactive)	11.2 µM (inactive)	91 µM (inactive)	28.8 µM (inactive)	> 100 µM (inactive)	> 100 µM (inactive)	> 100 µM (inactive)	53.7 µM (inactive)	> 100 µM (inactive)	> 100 µM (inactive)
COc1cc(C2SCC(=O)N2c2ccc(Oc3ccc(Cl)cc3)c(Cl)c2)cc(OC)c1OC (centres undefined)	16.9 µM (inactive)		19.7 µM (inactive)	40 µM (inactive)	22.2 µM (inactive)	17.9 µM (inactive)	20 µM (inactive)	8.04 µM (inactive)	19.8 µM (inactive)	16.6 µM (inactive)	17.1 µM (inactive)	42.7 µM (inactive)	23.2 µM (inactive)	17.2 µM (inactive)	16.4 µM (inactive)	27.3 µM (inactive)	21 µM (inactive)	17.6 µM (inactive)		30.9 µM (inactive)
CCCCOC(=O)C1CN2C(=NC1(C(F)(F)F)C(F)(F)F)Sc1ccccc12 (centres undefined)	> 100 µM (inactive)	30.2 µM (inactive)	31.8 µM (inactive)		30.6 µM (inactive)	43.5 µM (inactive)	60.3 µM (inactive)	23 µM (inactive)	53.1 µM (inactive)	27 µM (inactive)	58.5 µM (inactive)	45.5 µM (inactive)	> 100 µM (inactive)	33.8 µM (inactive)	36.9 µM (inactive)	98.4 µM (inactive)	49.5 µM (inactive)	19.2 µM (inactive)	> 100 µM (inactive)	30.3 µM (inactive)
CC(=O)c1c2c(cc3c1CC1(C3)Cc3cc4c(c(C(=O)O)c3C1)CCCC4)CCCC2.CC(N)c1ccccc1 (centres undefined)	33.4 µM (inactive)	31.7 µM (inactive)	27.9 µM (inactive)	34.5 µM (inactive)	36.6 µM (inactive)	35.5 µM (inactive)	42.1 µM (inactive)	17.6 µM (inactive)	33.4 µM (inactive)	40.1 µM (inactive)	23.6 µM (inactive)	37 µM (inactive)	28.5 µM (inactive)	38.7 µM (inactive)	33.7 µM (inactive)	30.7 µM (inactive)	45.4 µM (inactive)	18.6 µM (inactive)		28.8 µM (inactive)
CC(/C=N\NC(=S)N(C)C)=N/NC(=S)N(C)C	0.815 µM (active)		0.497 µM (active)	2.49 µM (inactive)	1.65 µM (inactive)	0.273 µM (active)	8.93 µM (inactive)	0.0397 µM (active)	0.995 µM (active)	0.202 µM (active)	0.317 µM (active)	5.16 µM (inactive)	10.9 µM (inactive)	0.251 µM (active)	0.147 µM (active)	0.951 µM (active)	0.0832 µM (active)	0.158 µM (active)	2.88 µM (inactive)	0.113 µM (active)
O=C(O)CCCN/C(=C1\C(=O)C(=O)N(c2ccccc2)C1=O)c1ccccc1	> 100 µM (inactive)	> 100 µM (inactive)	> 100 µM (inactive)	> 100 µM (inactive)	> 100 µM (inactive)	> 100 µM (inactive)	> 100 µM (inactive)	> 100 µM (inactive)	> 100 µM (inactive)	> 100 µM (inactive)	> 100 µM (inactive)	37.2 µM (inactive)	> 100 µM (inactive)	> 100 µM (inactive)	> 100 µM (inactive)	> 100 µM (inactive)	> 100 µM (inactive)	> 100 µM (inactive)		> 100 µM (inactive)
CC/C=C/C(/C=C/C[C@]1(CC)C[C@H](CC)[C@H](CC(=O)O)OO1)CC (some centres undefined)	1.96 µM (inactive)	0.492 µM (active)	1.78 µM (inactive)		1.91 µM (inactive)	0.33 µM (active)	1.85 µM (inactive)	2.31 µM (inactive)	12.4 µM (inactive)	2.1 µM (inactive)	2 µM (inactive)	1.52 µM (inactive)	2.34 µM (inactive)	3.58 µM (inactive)	2.16 µM (inactive)	5.65 µM (inactive)	2.12 µM (inactive)	0.494 µM (active)	14.3 µM (inactive)	1.91 µM (inactive)
C=C1CN2CC(=C)CN(C1)CS(=O)(=O)N1CC(=C)CN(CC(=C)C1)S(=O)(=O)N1CC(=C)CN(CC(=C)C1)S(=O)(=O)C2	> 100 µM (inactive)		34 µM (inactive)	17.7 µM (inactive)	25.4 µM (inactive)	> 100 µM (inactive)	52.5 µM (inactive)	67.1 µM (inactive)	23.3 µM (inactive)	> 100 µM (inactive)	> 100 µM (inactive)	34.3 µM (inactive)	56.8 µM (inactive)	25.6 µM (inactive)	31.9 µM (inactive)	43.4 µM (inactive)	71.8 µM (inactive)	42 µM (inactive)	46.5 µM (inactive)	47.1 µM (inactive)
CC(=O)N1N=C(c2ccc3ccccc3c2O)CC1C(=O)c1ccco1 (centres undefined)	44.1 µM (inactive)	6.24 µM (inactive)	25.8 µM (inactive)	16.3 µM (inactive)	21.8 µM (inactive)		20.6 µM (inactive)	5.62 µM (inactive)	23.2 µM (inactive)	18.1 µM (inactive)	20.3 µM (inactive)	17.5 µM (inactive)	28.6 µM (inactive)	14.4 µM (inactive)	24 µM (inactive)	41.2 µM (inactive)	33.3 µM (inactive)	23.1 µM (inactive)	29.7 µM (inactive)	19.2 µM (inactive)
Nc1ccccc1.O=C(O)C(C(F)(F)F)C(F)(F)F	34 µM (inactive)	> 100 µM (inactive)	> 100 µM (inactive)		> 100 µM (inactive)	> 100 µM (inactive)	> 100 µM (inactive)	> 100 µM (inactive)	> 100 µM (inactive)	> 100 µM (inactive)	> 100 µM (inactive)	> 100 µM (inactive)	> 100 µM (inactive)	> 100 µM (inactive)	> 100 µM (inactive)	> 100 µM (inactive)	> 100 µM (inactive)	> 100 µM (inactive)	> 100 µM (inactive)	> 100 µM (inactive)
C[n+]1c(-c2ccc(/C=N/N=C/c3ccc(-c4cn5ccccc5[n+]4C)cc3)cc2)cn2ccccc21		> 100 µM (inactive)	> 100 µM (inactive)	> 100 µM (inactive)	> 100 µM (inactive)		> 100 µM (inactive)	> 100 µM (inactive)		> 100 µM (inactive)		> 100 µM (inactive)	> 100 µM (inactive)	> 100 µM (inactive)	> 100 µM (inactive)	> 100 µM (inactive)	> 100 µM (inactive)	> 100 µM (inactive)		> 100 µM (inactive)
Cc1ccc2c(c1)NC(=O)CC(c1ccccc1)=N2	> 100 µM (inactive)			> 100 µM (inactive)	> 100 µM (inactive)	> 100 µM (inactive)	23.7 µM (inactive)	28.6 µM (inactive)	> 100 µM (inactive)	77.4 µM (inactive)	> 100 µM (inactive)	> 100 µM (inactive)	> 100 µM (inactive)	> 100 µM (inactive)	> 100 µM (inactive)	> 100 µM (inactive)	> 100 µM (inactive)	63.1 µM (inactive)	> 100 µM (inactive)	> 100 µM (inactive)
